Experiment [1] concerns the target SARS-CoV-2 3CL protease (Severe acute respiratory syndrome coronavirus 2, UniProt P0DTD1). Nature of the experiment: biochemical. The settings on record: for IC50: 15 nM enzyme, 60 min at 23° C.; for Ki: fit to the Morrison equation.
Experiment [2] deals with SARS-CoV-2. The experiment can be described thus: Antiviral activity in HeLa-ACE2 cells (viral protein detection). Particulars: Severe acute respiratory syndrome coronavirus 2, compound alone. It is filed as cell-based.

In experiment [1], `CC(C)(C)C[C@H](NC(=O)[C@H]1CCCO1)C(=O)N[C@@H](C[C@@H]1CCNC1=O)C(=O)COC(=O)c1c(Cl)cccc1Cl` [(3S)-3-({4-methyl-N-[(2R)-tetrahydrofuran-2-ylcarbonyl]-L-leucyl}amino)-2-oxo-4-[(3S)-2-oxopyrrolidin-3-yl]butyl 2,6-dichlorobenzoate] displayed an IC50 of 17 nM and a Ki of 2.71 nM.
In experiment [1], `COc1cccc2[nH]c(C(=O)N[C@@H](CC(C)C)C(=O)N[C@@H](C[C@@H]3CCNC3=O)C(=O)COC(=O)C3CC3)cc12` [(3S)-3-({N-[(4-methoxy-1H-indol-2-yl)carbonyl]-L-leucyl}amino)-2-oxo-4-[(3S)-2-oxopyrrolidin-3-yl]butyl cyclopropanecarboxylate] yielded an IC50 of 128 nM and a Ki of 42.7 nM.
In experiment [1], `O=C(N[C@@H](CC1CC1)C(=O)N[C@@H](C[C@@H]1CCNC1=O)C(=O)c1nc2ccccc2s1)c1ccccn1` [H, N-((S)-1-(((S)-1-(benzo[d]thiazol-2-yl)-1-oxo-3-((S)-2-oxopyrrolidin-3-yl)propan-2-yl)amino)-3-cyclopropyl-1-oxopropan-2-yl)picolinamide] had an IC50 of 8400 nM and a Ki of 3050 nM.
On to `COc1cccc2[nH]c(C(=O)N[C@@H](Cc3ccccc3)C(=O)N[C@@H](C[C@@H]3CCNC3=O)C(=O)CO)cc12` [I, N-((S)-1-(((S)-4-hydroxy-3-oxo-1-((S)-2-oxopyrrolidin-3-yl)butan-2-yl)amino)-1-oxo-3-phenylpropan-2-yl)-4-methoxy-1H-indole-2-carboxamide], for which, in experiment [1], the IC50 was determined as 375 nM and affinity was put at a Ki of 139 nM.
Taken in the same sequence, the figures for `CC(C)(C)C[C@H](NC(=O)c1cc2ccccc2[nH]1)C(=O)N[C@@H](C[C@@H]1CCNC1=O)C(=O)CO` [N-((1S)-1-{[((1S)-3-hydroxy-2-oxo-1-{[(3S)-2-oxopyrrolidin-3-yl]methyl}propyl)amino]carbonyl}-3,3-dimethylbutyl)-1H-indole-2-carboxamide] were 24 nM and 2.81 nM.
The molecule `CCC(CC)COC(=O)[C@H](C)N[P@](=O)(OC[C@H]1O[C@@](C#N)(c2ccc3c(N)ncnn23)[C@H](O)[C@@H]1O)Oc1ccccc1` [remdesivir, reference compound] showed an EC90 in experiment [2] of 168 nM.

The values above are taken from patent US20230157998A1, “Methods of Inhibiting SARS-CoV-2 Replication and Treating Corona Virus Disease 2019” (Pfizer Inc., priority 2020, published 2023).
